Measured values from patent publication US20230302071A1, “ANTIDEPRESSANT COMPOSITION CONTAINING PLEUROTUS ERYNGII EXTRACT AS ACTIVE INGREDIENT” (KOREA UNIVERSITY RESEARCH AND BUSINESS FOUNDATION, priority 2020, published 2023).

Legend:
mice = test: Forced swimming test (FST), immobility time; format: in vivo; conditions: intraperitoneal, each sample 20 mg/kg, 30 minutes before test, 4-minute period, FIG. 5
Description: In order to verify whether the fractions of the Pleurotus eryngii extract according to the present invention actually have antidepressant efficacy, a forced swimming test was performed using experimental animals. The antidepressant efficacy was determined by measuring the immobility time during a forced swimming test, and the less the immobility time, the greater the antidepressant efficacy. To this end, mice were intraperitoneally injected with each of the ethanol extract of Pleurotus eryngii according to the present invention and the primary fraction and the secondary fraction of the ethanol extract, after which the immobility time during a forced swimming test was measured. Each sample was injected in an amount of 20 mg/kg into experimental mice. Also, a Prozac-administered group was used as a positive control. Four mice (n=4) were intraperitoneally injected with each sample and then allowed to stand for 30 minutes, after which the mice were submerged in water for 6 minutes and then washed for a while, water in the water tank was exchanged, and the mice were placed again in the water tank for 4 minutes to conduct this experiment. Statistical processing was performed by measuring the immobility time during the 4-minute experimental period.

[1] = system: serotonin receptor-mediated signaling in AGS cell line; test: Serotonin receptor-mediated signaling in AGS cell line by Western blotting (pErk, pJNK); format: cell-based, human; conditions: FIG. 4
Description: Whether the fractions of the Pleurotus eryngii extract according to the present invention were involved in serotonin receptor-mediated signaling by treating an AGS cell line known to overexpress serotonin receptors with the fractions of the Pleurotus eryngii extract according to the present invention was evaluated using Western blotting. Here, an anti-pERK antibody, anti-Erk antibody, anti-pJNK antibody, anti-JNK antibody, and anti-α Tubulin antibody were used for western blotting.

| Compound | reduction in immobility time compared to negative control (mice) [%] | expression of phosphorylated pErk [1] | expression of phosphorylated pJNK [1] |
| --- | --- | --- | --- |
| CNCCC(Oc1ccc(C(F)(F)F)cc1)c1ccccc1 (stereo not drawn) [Prozac] | 24 | – | – |
| NCCc1c[nH]c2ccc(O)cc12 [serotonin] | – | increased | increased |
